Experimental data published in patent publication US20200069629A1, “PHEROMONE COMPOSITIONS AND USES THEREOF” (CEVA SANTE ANIMALE, priority 2015, published 2020).

Test: Stability test of Formula A, contents by gas chromatography
Format: physicochemical
Conditions: in Formula A; for Content T3 months (25/60) / Content T3 months (40/75): 3 months; for Content T3 months (25/60) / Content T7 months (25/60): 25° C. and 60% RH; for Content T3 months (40/75): 40° C. and 75% RH; for Content T7 months (25/60): 7 months; for Content T0 month: white glass flask
Method: Detection and measures of the valeric acid, ethyl lactate and linoleic acid were made by using Gas chromatography (GC). Approximately 490 mg of linoleic acid, 53 mg of valeric acid and 78 mg of ethyl lactate accurately weighed are introduced into a 50 ml volumetric flask. This is completed to volume with ethyl acetate. […] A dilution 1/20 is made and completed to volume with ethyl acetate and the solution is stirred to homogenize. Approximately 2.5 g of Formula tested is introduced into a 20 ml volumetric flask. This is completed to volume with ethyl acetate. […] The solution is limpid. Gas chromatography equipped with a Capillary Column HP-FFAP 25 m×320 μm and a FID detector at 250° C. 1 μl of the solution is injected in the inlet (250° C.) and eluted through the column with Helium at constant flow (3 ml/min). Valeric acid (≈5.2 min), linoleic acid (≈13.5 min) and ethyl lactate (≈2.7 min) are quantified and contents thereof (% w/w) are given by the ratio of the areas of the peak corresponding to valeric acid, linoleic acid or ethyl lactate in the chromatogram obtained with the sample preparation and the standard solution.

Content T3 months (25/60) | Content T3 months (40/75) | Content T7 months (25/60) | Content T0 month | Structure (SMILES)
0.386 % w/w | 0.364 % w/w | 0.398 % w/w | 0.395 % w/w | CCCCC/C=C\C/C=C\CCCCCCCC(=O)O [Linoleic acid]
0.039 % w/w | 0.038 % w/w | 0.039 % w/w | 0.0425 % w/w | CCCCC(=O)O [Valeric acid]
0.060 % w/w | 0.059 % w/w | 0.059 % w/w | 0.0625 % w/w | CCOC(=O)C(C)O (stereo not drawn) [Ethyl lactate]
